In US20200038413A1, “METHODS OF TREATING PARKINSON'S DISEASE USING AMINOSTEROL COMPOSITIONS” (Enterin, Inc., priority 2018, published 2020):

System: myenteric intrinsic primary afferent neurons (IPANs)
Assay: Whole-cell patch clamp, divided hemi-dissection preparation, FVB PD mice
Assay type: cell-based, mouse
Conditions: for decrease in sAHP area under the curve / depolarisation of RMP / increase in number of APs at 2× threshold intensity / number of APs at 2× threshold intensity / AP threshold / sAHP area under the curve / RMP: FVB PD
Protocol: Whole-cell Patch Clamp: Whole-cell patch clamp was performed on a hemi-dissected myenteric plexus preparation as previously described. […]
Myenteric Primary Afferent Neuron Excitation: Squalamine excites myenteric primary afferent neurons. The effect of squalamine on the excitability of an isolated intestinal segment from the FVB PD mouse was explored using divided hemi-dissection preparations so that neurons are exposed for only half the area of an opened small intestinal segment. In this experiment, the inquiry was whether squalamine influenced the activity of the IPAN through direct interaction or indirectly, by stimulating release of epithelial mediators that influenced IPAN behaviour. Addition of squalamine (30 μM) to Krebs buffer in either the epithelial or the myenteric plexus compartments of the divided hemi-dissection preparation increased IPAN excitability (FIG. 12A-F). […] Addition of squalamine decreased the area under the curve of the sAHP by 77% from 86.8±88.2 to 20.3±25.3 mV.s, and depolarised RMP by 12% from −62±7 to −54±6 mV.

[1] = 30 μM added to the myenteric plexus

**Q.** How did the “decrease in sAHP area under the curve” value (30 μM added to the epithelium) turn out when `CC(C)[C@@H](CC[C@@H](C)[C@H]1CC[C@H]2[C@@H]3[C@H](O)C[C@H]4C[C@@H](NCCCNCCCCN)CC[C@]4(C)[C@H]3CC[C@]12C)OS(=O)(=O)O` (single isomer, unassigned) [squalamine (ENT-01), squalamine] was run?
**A.** 77%

**Q.** And the “depolarisation of RMP” value (30 μM added to the epithelium)?
**A.** 12%

**Q.** And the “increase in number of APs at 2× threshold intensity” value (30 μM added to the epithelium)?
**A.** 87%

**Q.** And the “decrease in AP threshold” value (30 μM added to the epithelium, FVB PD mouse (N=15))?
**A.** 44%

**Q.** And the “number of APs at 2× threshold intensity” value (30 μM added to the epithelium, before 1.6±0.6)?
**A.** 3.1±0.7

**Q.** What about the AP threshold (30 μM added to the epithelium, before 63.7±50.4) of the same compound?
**A.** 35.7±22.3 pA

**Q.** And the “sAHP area under the curve” value (30 μM added to the epithelium, before 86.8±88.2)?
**A.** 20.3±25.3 mV.s

**Q.** What about the RMP (30 μM added to the epithelium, before −62±7) of the same compound?
**A.** −54±6 mV

**Q.** And the “decrease in sAHP area under the curve” value [1]?
**A.** 87%

**Q.** What about the “depolarisation of RMP” value [1] of the same compound?
**A.** 13%

**Q.** What about the “increase in number of APs at 2× threshold intensity” value [1] of the same compound?
**A.** 214%

**Q.** What about the “decrease in AP threshold” value (30 μM added to the myenteric plexus, FVB PD mouse (N=5)) of the same compound?
**A.** 37%

**Q.** And the “number of APs at 2× threshold intensity” value (30 μM added to the myenteric plexus, before 1.4±0.5)?
**A.** 4.4±2.8

**Q.** And the AP threshold (30 μM added to the myenteric plexus, before 46.0±31.3)?
**A.** 29.0±10.1 pA

**Q.** What about the RMP (30 μM added to the myenteric plexus, before −63±4) of the same compound?
**A.** −55±6 mV

**Q.** What about the “sAHP area under the curve” value (30 μM added to the myenteric plexus, before −71.9±60.1) of the same compound?
**A.** -9.6±15.1 mV.s
